Reference: US12692264B2, “Pyrimidine or pyridine derivative, preparation method therefor, and application thereof in pharmacy” (ABBISKO THERAPEUTICS CO., LTD., priority 2021, dated 2026)

Key:
Assay type in all cases: cell-based
[1] = system: A431 (EGFR-WT); assay: Cell proliferation study (CellTiter-Glo, 72 hrs), A431; conditions: Homo sapiens, A-431, A431 cells, CTG, * = average of multiple measurements
Summary of the method: (§1)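 Cells were seeded overnight, then exposed for 72 hrs at 37 °C, 5% CO2 to 9 concentrations in 3.16-fold steps, 0.1% DMSO final, triplicate wells. Viability was read by CellTiter-Glo luminescence, with a T0 plate read at dosing. IC50 came from nonlinear sigmoidal dose-response fits.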

[2] = target: Ba/F3 EGFR-D770-N771ins_SVD (Homo sapiens, UniProt P00533, DUP768-770, cells depend on it); assay: Cell proliferation study (CellTiter-Glo, 72 hrs), Ba/F3 EGFR-D770-N771ins_SVD; conditions: CTG, * = average of multiple measurements, read-out: Ba/F3 EGFR-D770-N771ins_SVD IC50
Summary of the method: as §1

[3] = target: Ba/F3 EGFR-V769_D770insASV (Homo sapiens, UniProt P00533, DUP767-769, cells depend on it); assay: Cell proliferation study (CellTiter-Glo, 72 hrs), Ba/F3 EGFR-V769_D770insASV; conditions: CTG, * = average of multiple measurements, read-out: Ba/F3 EGFR-V769_D770insASV IC50
Summary of the method: as §1

Chain of Ba/F3 EGFR-D770-N771ins_SVD (P00533 with tags, fused parts or gaps DUP768-770): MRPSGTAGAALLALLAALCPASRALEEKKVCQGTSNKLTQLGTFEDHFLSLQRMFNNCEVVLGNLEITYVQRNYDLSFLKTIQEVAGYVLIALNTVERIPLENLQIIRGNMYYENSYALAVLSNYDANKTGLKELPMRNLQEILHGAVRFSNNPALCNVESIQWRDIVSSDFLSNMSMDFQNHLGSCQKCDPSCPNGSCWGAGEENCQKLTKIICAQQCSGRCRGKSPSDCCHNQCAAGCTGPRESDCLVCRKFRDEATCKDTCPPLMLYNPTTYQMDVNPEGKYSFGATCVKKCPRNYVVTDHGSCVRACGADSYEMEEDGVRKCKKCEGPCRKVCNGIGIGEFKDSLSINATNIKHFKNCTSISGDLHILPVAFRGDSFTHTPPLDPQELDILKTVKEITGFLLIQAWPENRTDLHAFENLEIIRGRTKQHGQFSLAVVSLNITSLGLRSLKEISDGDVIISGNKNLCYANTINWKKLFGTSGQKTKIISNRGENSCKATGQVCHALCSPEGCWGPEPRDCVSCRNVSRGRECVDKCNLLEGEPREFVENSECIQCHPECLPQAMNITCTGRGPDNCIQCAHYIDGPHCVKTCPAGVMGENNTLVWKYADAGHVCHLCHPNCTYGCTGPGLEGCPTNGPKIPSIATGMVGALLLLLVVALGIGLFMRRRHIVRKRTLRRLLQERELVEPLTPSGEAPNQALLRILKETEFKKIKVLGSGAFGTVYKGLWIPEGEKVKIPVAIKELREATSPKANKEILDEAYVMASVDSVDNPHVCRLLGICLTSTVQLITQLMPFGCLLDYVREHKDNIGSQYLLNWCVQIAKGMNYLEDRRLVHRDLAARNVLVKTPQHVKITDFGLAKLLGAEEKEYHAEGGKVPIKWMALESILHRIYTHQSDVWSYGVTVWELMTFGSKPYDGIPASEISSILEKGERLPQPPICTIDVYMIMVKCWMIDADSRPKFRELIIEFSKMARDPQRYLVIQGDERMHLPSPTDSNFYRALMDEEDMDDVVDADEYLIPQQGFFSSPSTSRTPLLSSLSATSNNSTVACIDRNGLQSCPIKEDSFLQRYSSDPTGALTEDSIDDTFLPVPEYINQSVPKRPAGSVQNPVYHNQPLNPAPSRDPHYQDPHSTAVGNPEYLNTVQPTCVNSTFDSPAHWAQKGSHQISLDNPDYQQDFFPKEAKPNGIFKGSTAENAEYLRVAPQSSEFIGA
Chain of Ba/F3 EGFR-V769_D770insASV (P00533 with tags, fused parts or gaps DUP767-769): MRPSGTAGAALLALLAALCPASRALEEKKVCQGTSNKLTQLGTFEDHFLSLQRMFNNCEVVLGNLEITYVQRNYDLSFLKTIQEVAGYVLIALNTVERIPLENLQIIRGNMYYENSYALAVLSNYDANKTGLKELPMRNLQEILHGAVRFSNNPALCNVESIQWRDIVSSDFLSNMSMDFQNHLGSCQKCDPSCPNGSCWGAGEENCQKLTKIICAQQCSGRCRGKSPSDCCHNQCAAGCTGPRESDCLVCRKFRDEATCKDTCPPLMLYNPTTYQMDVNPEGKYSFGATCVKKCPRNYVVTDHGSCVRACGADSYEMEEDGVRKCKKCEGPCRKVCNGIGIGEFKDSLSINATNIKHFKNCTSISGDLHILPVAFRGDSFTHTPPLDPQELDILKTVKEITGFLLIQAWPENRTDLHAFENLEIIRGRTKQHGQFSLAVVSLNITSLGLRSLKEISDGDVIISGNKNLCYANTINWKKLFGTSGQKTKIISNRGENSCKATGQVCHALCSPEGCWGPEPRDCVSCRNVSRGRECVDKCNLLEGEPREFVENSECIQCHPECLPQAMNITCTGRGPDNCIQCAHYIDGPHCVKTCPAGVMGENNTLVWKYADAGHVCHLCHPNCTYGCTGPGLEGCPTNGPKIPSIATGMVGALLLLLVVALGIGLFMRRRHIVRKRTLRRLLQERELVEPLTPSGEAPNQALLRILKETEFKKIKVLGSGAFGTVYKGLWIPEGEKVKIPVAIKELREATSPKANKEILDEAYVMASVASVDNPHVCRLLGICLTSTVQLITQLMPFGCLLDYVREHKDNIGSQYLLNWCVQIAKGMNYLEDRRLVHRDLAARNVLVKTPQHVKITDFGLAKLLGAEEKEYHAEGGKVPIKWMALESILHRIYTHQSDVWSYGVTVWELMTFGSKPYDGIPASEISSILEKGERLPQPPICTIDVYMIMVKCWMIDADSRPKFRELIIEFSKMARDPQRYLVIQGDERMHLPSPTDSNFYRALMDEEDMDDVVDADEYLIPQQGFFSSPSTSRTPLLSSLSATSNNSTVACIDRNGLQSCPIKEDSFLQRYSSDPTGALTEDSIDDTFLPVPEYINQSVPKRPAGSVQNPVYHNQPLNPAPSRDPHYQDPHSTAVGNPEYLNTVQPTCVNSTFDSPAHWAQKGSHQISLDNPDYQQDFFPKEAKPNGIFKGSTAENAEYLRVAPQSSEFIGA

`C=CC(=O)Nc1cc(Nc2ncc(C(=O)OC(C)C)c(N3CC(C)(C)c4nc(C#CC)ccc43)n2)c(OC)cc1N(C)CCN(CC)CC` [Example 89, isopropyl 2-((5-acrylamido-4-((2-(diethyl-amino)ethyl)(methyl)amino)-2-methoxyphenyl)amino)-4-(3,3-dimethyl-5-(prop-1-yn-1-yl)-2,3-dihydro-1H-pyrrolo[3,2-b]pyridin-1-yl)pyrimidine-5-carboxylate] showed an IC50 [1] of 178 nM, a GI50 [2] of 13.1 nM and a GI50 [3] of 242 nM.

Compound `[2H]C1([2H])N(c2nc(Nc3cc(NC(=O)C=C)c(N(C)CCN(C)C)cc3OC)ncc2C(=O)OC(C)C)c2ccc(C)nc2C1(C)C` [Example 47, isopropyl 2-((5-acrylamido-4-((2-(dimethylami-no)ethyl)(methyl)amino)-2-methoxy-phenyl)amino)-4-(3,3,5-trimethyl-2,3-dihydro-1H-pyrrolo[3,2-b]pyridin-1-yl-2,2-d2)pyrimidine-5-carboxylate] has an IC50 [1] of 56.1 nM, a GI50 [2] of 13.4 nM and a GI50 [3] of 22.4 nM.

Compound `C=CC(=O)Nc1cc(Nc2ncc(C(=O)OC(C)C)c(N3CC4(CCC4)c4ncccc43)n2)c(OC)cc1N(C)CCN(C)C` [Example 7, isopropyl 2-((5-acrylamido-4-((2-(dimethylami-no)ethyl)(methyl)amino)-2-methoxy-phenyl)amino)-4-(spiro(cyclobutane-1,3′-pyrrolo[3,2-b]pyridin)-1′(2′H)-yl)pyrimidine-5-carboxylate] has an IC50 [1] of 735 nM, a GI50 [2] of 18.8 nM and a GI50 [3] of 29.9 nM.

In the case of `C=CC(=O)Nc1cc(Nc2ncc(C(=O)OC(C)C)c(N3CC(C)(C)c4nc(C)ccc43)n2)c(OC)nc1N(C)C[C@@H]1CCCN1C` [Example 46, isopropyl (S)-2-((5-acrylamido-2-methoxy-6-(methyl((1-methylpyrrolidin-2-yl)methyl)amino)pyridin-3-yl)amino)-4-(3,3,5-trimethyl-2,3-dihydro-1H-pyrrolo[3,2-b]pyridin-1-yl)pyrimidine-5-carboxylate], the IC50 [1] is reported as 270 nM, the GI50 [2] is reported as 20.5 nM and the GI50 [3] is reported as 33.5 nM.

`C=CC(=O)Nc1cc(Nc2ncc(C(=O)OC(C)C)c(N3CC4(CC4)c4nc(C)ccc43)n2)c(OC)cc1NCCN(C)C` [Example 65, isopropyl 2-((5-acrylamido-4-((2-(dimethylami-no)ethyl)amino)-2-methoxy-phenyl)amino)-4-(5′-methylspiro(cyclo-propane-1,3′-pyrrolo[3,2-b]pyridin)-1′(2′H)-yl)pyrimidine-5-carboxylate] showed an IC50 [1] of 282 nM, a GI50 [2] of 39 nM and a GI50 [3] of 34.4 nM.

`C=CC(=O)Nc1cc(Nc2ncc(C(=O)OC(C)C)c(N3CC(C)(C)c4ncccc43)n2)c(OC)cc1N1C[C@@H](F)C[C@@H]1CN(C)C` [Example 88, isopropyl 2-((5-acrylamido-4-((2R,4S)-2-((di-methylamino)methyl)-4-fluoro-pyrrolidin-1-yl)-2-methoxy-phenyl)amino)-4-(3,3-dimethyl-2,3-dihydro-1H-pyrrolo[3,2-b]pyridin-1-yl)pyrimidine-5-carboxylate] gave an IC50 [1] of 20.9 nM, a GI50 [2] of 15.4 nM and a GI50 [3] of 9.2 nM.

`C=CC(=O)Nc1cc(Nc2ncc(C(=O)OC(C)C)c(N3CC(C)(C)c4cc(F)c(F)cc43)n2)c(OC)cc1N1C[C@@H](F)C[C@@H]1CN(C)C` [Example 93, isopropyl 2-((5-acrylamido-4-((2R,4S)-2-((di-methylamino)methyl)-4-fluoro-pyrrolidin-1-yl)-2-methoxy-phenyl)amino)-4-(5,6-difluoro-3,3-dimethylindolin-1-yl)pyrimidine-5-carboxylate] was tested, and the IC50 [1] was 778 nM, the GI50 [2] was 34.6 nM and the GI50 [3] was 28.8 nM.

Work on `C=CC(=O)Nc1cc(Nc2ncc(C(=O)OC(C)C)c(N3CC(C)(C)c4nc(C)ccc43)n2)c(OC)cc1N(C)CCN1CCC1` [Example 67, isopropyl 2-((5-acrylamido-4-((2-(azetidin-1-yl)ethyl)(methyl)amino)-2-methoxy-phenyl)amino)-4-(3,3,5-trimethyl-2,3-dihydro-1H-pyrrolo[3,2-b]pyridin-1-yl)pyrimidine-5-carboxylate] yielded an IC50 [1] of 515 nM, a GI50 [2] of 23.9 nM and a GI50 [3] of 37.1 nM.

Compound `[2H]C([2H])([2H])C1(C([2H])([2H])[2H])CN(c2nc(Nc3cc(NC(=O)C=C)c(N(C)CCN(C)C)cc3OC)ncc2C(=O)OC(C)C)c2ccc(C)nc21` [Example 73, isopropyl 2-((5-acrylamido-4-((2-(dimethylami-no)ethyl)(methyl)amino)-2-methoxy-phenyl)amino)-4-(5-methyl-3,3-bis(methyl-d3)-2,3-dihydro-1H-pyrrolo[3,2-b]pyridin-1-yl)pyrimidine-5-carboxylate] has an IC50 [1] of 90 nM, a GI50 [2] of 12.3 nM and a GI50 [3] of 34.8 nM.

Compound `C=CC(=O)Nc1cc(Nc2ncc(C(=O)OC(C)C)c(N3CC4(CC4)c4nc(C)ccc43)n2)c(OC)cc1N(C)CCN(C)C` [Example 22, isopropyl 2-((5-acrylamido-4-((2-(dimethylami-no)ethyl)(methyl)amino)-2-methoxy-phenyl)amino)-4-(5′-methylspiro(cyclo-propane-1,3′-pyrrolo[3,2-b]pyridin)-1′(2′H)-yl)pyrimidine-5-carboxylate] has an IC50 [1] of 127 nM, a GI50 [2] of 20.6 nM and a GI50 [3] of 48.8 nM.

For `C=CC(=O)Nc1cc(Nc2ncc(C(=O)OC(C)C)c(N3CC(C)(C)c4nc(C)ccc43)n2)c(OC(F)F)cc1N(C)CCN(C)C` [Example 81, isopropyl 2-((5-acrylamido-2-(difluoromethoxy)-4-((2-(dimethylamino)eth-yl)(methyl)amino)phenyl)amino)-4-(3,3,5-trimethyl-2,3-dihydro-1H-pyrrolo[3,2-b]pyridin-1-yl)pyrimidine-5-carboxylate], the IC50 [1] was 128 nM, the GI50 [2] was 9 nM and the GI50 [3] was 29.3 nM.

`C=CC(=O)Nc1cc(Nc2ncc(C(=O)OC(C)C)c(N3CC(C)(C)c4nc(C)ccc43)n2)c(O)cc1N(C)CCN(C)C` [Example 54, isopropyl 2-((5-acrylamido-4-((2-(dimethylami-no)ethyl)(methyl)amino)-2-hydroxy-phenyl)amino)-4-(3,3,5-trimethyl-2,3-dihydro-1H-pyrrolo[3,2-b]pyridin-1-yl)pyrimidine-5-carboxylate] was tested, and the IC50 [1] was 1140 nM, the GI50 [2] was 77 nM and the GI50 [3] was 81.9 nM.

In the case of `C=CC(=O)Nc1cc(Nc2ncc(C(=O)OC(C)C)c(N3CC(C)(C)c4ncccc43)n2)c(OC)cc1N(C)CCN(C)C` [Example 2, isopropyl 2-((5-acrylamido-4-((2-(dimethylami-no)ethyl)(methyl)amino)-2-methoxy-phenyl)amino)-4-(3,3-dimethyl-2,3-dihydro-1H-pyrrolo[3,2-b]pyridin-1-yl)pyrimidine-5-carboxylate], the IC50 [1] is reported as 479 nM, the GI50 [2] is reported as 26.8 nM and the GI50 [3] is reported as 35 nM.

In the case of `C=CC(=O)Nc1cc(Nc2ncc(C(=O)OC(C)C)c(N3CC(C)(C)c4nc(-c5cnn(C)c5)ccc43)n2)c(OC)cc1N(C)CCN(C)C` [Example 8, isopropyl 2-((5-acrylamido-4-((2-(dimethylami-no)ethyl)(methyl)amino)-2-methoxy-phenyl)amino)-4-(3,3-dimethyl-5-(1-methyl-1H-pyrazol-4-yl)-2,3-dihydro-1H-pyrrolo[3,2-b]pyridin-1-yl)pyrimidine-5-carboxylate], the IC50 [1] is reported as 102 nM, the GI50 [2] is reported as 11 nM and the GI50 [3] is reported as 18.7 nM.

In the case of `C=CC(=O)Nc1cc(Nc2ncc(C(=O)OC(C)C)c(N3CC(C)(C)c4nc(C)ccc43)n2)c(OC)cc1N(C)CCN(C)C` [Example 1, isopropyl 2-((5-acrylamido-4-((2-(dimethylamino)ethyl)(methyl)amino)-2-methoxyphenyl)amino)-4-(3,3,5-trimethyl-2,3-dihydro-1H-pyrrolo[3,2-b]pyridin-1-yl)pyrimidine-5-carboxylate], the IC50 [1] is reported as 105 nM, the GI50 [2] is reported as 7 nM and the GI50 [3] is reported as 10.4 nM.

`C=CC(=O)Nc1cc(Nc2ncc(C(=O)OC(C)C)c(N3CC(C)(C)c4nc(C#CC)ccc43)n2)c(OC)cc1N1C[C@@H](F)C[C@@H]1CN(C)C` [Example 84, isopropyl 2-((5-acrylamido-4-((2R,4S)-2-((di-methylamino)methyl)-4-fluoro-pyrrolidin-1-yl)-2-methoxy-phenyl)amino)-4-(3,3-dimethyl-5-(prop-1-yn-1-yl)-2,3-dihydro-1H-pyrrolo[3,2-b]pyridin-1-yl)pyrimidine-5-carboxylate] gave an IC50 [1] of 220 nM, a GI50 [2] of 12 nM and a GI50 [3] of 12.6 nM.

With `C=CC(=O)Nc1cc(Nc2ncc(C(=O)OC(C)C)c(N3CC(C)(C)c4nc(C)ccc43)n2)c(OC)cc1N(C)C[C@H]1CCCN1C` [Example 62, isopropyl (R)-2-((5-acrylamido-2-methoxy-4-(methyl((1-methylpyrrolidin-2-yl)methyl)amino)phenyl)amino)-4-(3,3,5-trimethyl-2,3-dihydro-1H-pyrrolo[3,2-b]pyridin-1-yl)pyrimidine-5-carboxylate] the IC50 [1] was 120 nM, the GI50 [2] was 12.3 nM and the GI50 [3] was 16 nM.

`C=CC(=O)Nc1cc(Nc2ncc(C(=O)OC(C)C)c(N3CC(C)(C)c4nc(C)ccc43)n2)c(OC)cc1N1C[C@@H](F)C[C@@H]1CN(C)C` [Example 63, isopropyl 2-((5-acrylamido-4-((2R,4S)-2-((dimethylamino)methyl)-4-fluoro-pyrrolidin-1-yl)-2-methoxy-phenyl)amino)-4-(3,3,5-trimethyl-2,3-dihydro-1H-pyrrolo[3,2-b]pyridin-1-yl)pyrimidine-5-carboxylate] gave an IC50 [1] of 110 nM, a GI50 [2] of 10.7 nM and a GI50 [3] of 18.3 nM.
